Measurements published in PMC4794209, “Preformulation Studies on Piperlongumine” (PLoS ONE, 2016).

Experiments:
Format in all cases: physicochemical
[1] = Aqueous stability studies (pH, temperature, ionic strength)
Method: Aqueous stability studies for piperlongumine were conducted in three buffer systems: citrate (pH 3, 4, and 5); phosphate (pH 5, 6, and 7); and borate (pH 8 and 9). The ionic strength for the solutions was also varied, utilizing approximately 0.2 or 0.5 M. Each buffered sample was prepared with 10% acetonitrile as a cosolvent, then sealed and protected from light. Samples were stored at four different temperatures: 4°C (for samples at pH 3, 8 and 9 only), 26°C, 56°C and 67°C. Aliquots were regularly withdrawn for analysis. Changes in pH, if any, were also monitored. Stability studies were carried out for 18 months or until complete degradation occurred.
Apparent first order degradation was also obtained for the 4, […] and 67°C degradation profiles. Degradation rate constants, k-values, for piperlongumine were calculated using the slopes of the trend lines of each profile.
An Arrhenius plot of log k versus the reciprocal of the temperature (Fig 9) was utilized to determine the length of time it takes for piperlongumine to degrade 50% (T50) and 10% (T90). For a given pH the Arrhenius equation was utilized: Log k = log A − (Ea/2.303 RT) (1) Where: […]

[2] = Additional stability studies with antioxidants, chelator, hydrogen peroxide
Method: The addition of antioxidants such as ascorbic acid and sodium bisulfite and the chelator EDTA were evaluated with the drug at pH 3 (citrate buffer) and pH 7 (phosphate buffer). Samples in phosphate buffer were maintained at 26°C while the samples in citrate buffer were kept at 56°C. All three agents were used at a concentration of 0.05% w/v. Aliquots were withdrawn on a regular basis and pH and drug concentration were monitored. Piperlongumine stability was also examined after the addition of 1.5% w/v hydrogen peroxide in pH 3 citrate buffer at room temperature.

[3] = Solubility studies (excess drug, agitation at least 24 h, HPLC)
[4] = pH 3, citrate, ionic strength 0.2, 25°C
[5] = pH 3, citrate, ionic strength 0.5, 25°C
[6] = pH 5, citrate, ionic strength 0.2, 25°C
[7] = pH 5, phosphate, ionic strength 0.2, 25°C
[8] = pH 5, phosphate, ionic strength 0.5, 25°C
[9] = pH 6, phosphate, ionic strength 0.2, 25°C
[10] = pH 7, phosphate, ionic strength 0.2, 25°C
[11] = pH 8, borate, ionic strength 0.2, 25°C
[12] = pH 9, borate, ionic strength 0.2, 25°C
[13] = pH 9, borate, ionic strength 0.5, 25°C
[14] = citrate, pH 3, 26°C, hydrogen peroxide 1.5% w/v
[15] = citrate, pH 3, 56°C, EDTA 0.05% w/v
[16] = citrate, pH 3, 56°C, ascorbic acid 0.05% w/v
[17] = citrate, pH 3, 56°C, no additional substance
[18] = citrate, pH 3, 56°C, sodium bisulfite 0.05% w/v
[19] = phosphate, pH 7, 26°C, EDTA 0.05% w/v
[20] = phosphate, pH 7, 26°C, ascorbic acid 0.05% w/v
[21] = phosphate, pH 7, 26°C, no additional substance
[22] = phosphate, pH 7, 26°C, sodium bisulfite 0.05% w/v

COc1cc(/C=C/C(=O)N2CCC=CC2=O)cc(OC)c1OC [piperlongumine, 1-[(2E)-3-(3,4,5-trimethoxyphenyl)prop-2-enoyl]-1,2,5,6-tetrahydropyridin-2-one]
Effect of ionic strength on degradation rate ([1]; 0.2 M vs 0.5 M, pH 9, borate buffer): No difference in degradation rate
Kinetics of thermal degradation ([1]; 56°C, several pH conditions): first order degradation kinetics
Effect of buffer species on degradation rate ([1]; citrate vs phosphate, pH 5): degradation rates are similar
Effect of ionic strength on stability half-life ([1]; increase from approximately 0.2 M to 0.5 M, pH 3 and pH 5): nominal effects
Ea ([1]; pH 3, citrate, ionic strength 0.2): 21.2 kcal/mol
T50 at 25°C [1, 4]: 69.6 weeks
T90 at 25°C [1, 4]: 10.6 weeks
k values 26°C ([1]; pH 3, citrate, ionic strength 0.2, 26°C): 0.0110 weeks^-1
k values 56°C ([1]; pH 3, citrate, ionic strength 0.2, 56°C): 0.3057 weeks^-1
k values 67°C ([1]; pH 3, citrate, ionic strength 0.2, 67°C): 0.7808 weeks^-1
Ea ([1]; pH 3, citrate, ionic strength 0.5): 22.1 kcal/mol
T50 at 25°C [1, 5]: 75.4 weeks
T90 at 25°C [1, 5]: 11.5 weeks
k values 26°C ([1]; pH 3, citrate, ionic strength 0.5, 26°C): 0.0101 weeks^-1
k values 56°C ([1]; pH 3, citrate, ionic strength 0.5, 56°C): 0.3413 weeks^-1
k values 67°C ([1]; pH 3, citrate, ionic strength 0.5, 67°C): 0.8383 weeks^-1
T90 without hydrogen peroxide ([1]; pH 3 citrate, 26°C, from Table 1): about 9.5 weeks
Ea ([1]; pH 4, citrate, ionic strength 0.2): 20.3 kcal/mol
T50 at 25°C ([1]; pH 4, citrate, ionic strength 0.2, 25°C): 112.9 weeks
k values 26°C ([1]; pH 4, citrate, ionic strength 0.2, 26°C): 0.0067 weeks^-1
k values 56°C ([1]; pH 4, citrate, ionic strength 0.2, 56°C): 0.1739 weeks^-1
k values 67°C ([1]; pH 4, citrate, ionic strength 0.2, 67°C): 0.3813 weeks^-1
Ea ([1]; pH 5, citrate, ionic strength 0.2): 20.7 kcal/mol
T50 at 25°C [1, 6]: 87.6 weeks
T90 at 25°C [1, 6]: 13.3 weeks
k values 26°C ([1]; pH 5, citrate, ionic strength 0.2, 26°C): 0.0090 weeks^-1
k values 56°C ([1]; pH 5, citrate, ionic strength 0.2, 56°C): 0.2045 weeks^-1
k values 67°C ([1]; pH 5, citrate, ionic strength 0.2, 67°C): 0.6125 weeks^-1
Ea ([1]; pH 5, phosphate, ionic strength 0.2): 21.5 kcal/mol
T50 at 25°C [1, 7]: 101.5 weeks
T90 at 25°C [1, 7]: 15.4 weeks
k values 26°C ([1]; pH 5, phosphate, ionic strength 0.2, 26°C): 0.0076 weeks^-1
k values 56°C ([1]; pH 5, phosphate, ionic strength 0.2, 56°C): 0.2201 weeks^-1
k values 67°C ([1]; pH 5, phosphate, ionic strength 0.2, 67°C): 0.5741 weeks^-1
Ea ([1]; pH 5, phosphate, ionic strength 0.5): 20.3 kcal/mol
T50 at 25°C [1, 8]: 88.7 weeks
T90 at 25°C [1, 8]: 13.5 weeks
k values 26°C ([1]; pH 5, phosphate, ionic strength 0.5, 26°C): 0.0090 weeks^-1
k values 56°C ([1]; pH 5, phosphate, ionic strength 0.5, 56°C): 0.1764 weeks^-1
k values 67°C ([1]; pH 5, phosphate, ionic strength 0.5, 67°C): 0.5741 weeks^-1
Ea ([1]; pH 6, phosphate, ionic strength 0.2): 22.7 kcal/mol
T50 at 25°C [1, 9]: 75.5 weeks
T90 at 25°C [1, 9]: 11.5 weeks
k values 26°C ([1]; pH 6, phosphate, ionic strength 0.2, 26°C): 0.0108 weeks^-1
k values 56°C ([1]; pH 6, phosphate, ionic strength 0.2, 56°C): 0.2919 weeks^-1
k values 67°C ([1]; pH 6, phosphate, ionic strength 0.2, 67°C): 1.1652 weeks^-1
Ea ([1]; pH 7, phosphate, ionic strength 0.2): 22.5 kcal/mol
T50 at 25°C [1, 10]: 16.0 weeks
T90 at 25°C [1, 10]: 2.4 weeks
k values 26°C ([1]; pH 7, phosphate, ionic strength 0.2, 26°C): 0.0506 weeks^-1
k values 56°C ([1]; pH 7, phosphate, ionic strength 0.2, 56°C): 1.3607 weeks^-1
k values 67°C ([1]; pH 7, phosphate, ionic strength 0.2, 67°C): 5.1370 weeks^-1
Ea ([1]; pH 8, borate, ionic strength 0.2): 19.8 kcal/mol
k values 4°C ([1]; pH 8, borate, ionic strength 0.2, 4°C): 0.0232 weeks^-1
T50 at 25°C [1, 11]: 2.0 weeks
T90 at 25°C [1, 11]: 0.3 weeks
k values 26°C ([1]; pH 8, borate, ionic strength 0.2, 26°C): 0.5120 weeks^-1
k values 56°C ([1]; pH 8, borate, ionic strength 0.2, 56°C): 7.2924 weeks^-1
k values 67°C ([1]; pH 8, borate, ionic strength 0.2, 67°C): 20.933 weeks^-1
Ea ([1]; pH 9, borate, ionic strength 0.2): 22.7 kcal/mol
k values 4°C ([1]; pH 9, borate, ionic strength 0.2, 4°C): 0.1182 weeks^-1
T50 at 25°C [1, 12]: 0.3 weeks
T90 at 25°C [1, 12]: 0.05 weeks
k values 26°C ([1]; pH 9, borate, ionic strength 0.2, 26°C): 2.4375 weeks^-1
Ea ([1]; pH 9, borate, ionic strength 0.5): 22.7 kcal/mol
k values 4°C ([1]; pH 9, borate, ionic strength 0.5, 4°C): 0.1171 weeks^-1
T50 at 25°C [1, 13]: 0.3 weeks
T90 at 25°C [1, 13]: 0.05 weeks
k values 26°C ([1]; pH 9, borate, ionic strength 0.5, 26°C): 2.4372 weeks^-1
pH of maximum stability ([1]; pH degradation rate profile, 26, 56, 67°C): ~4
Stability in pH degradation rate profile ([1]; pH values ≥ 7 and 3, various temperatures): significant instability
Major degradation products ([1]; stability samples at pH 3, 5 and 8, LC-MS): 3,4,5- trimethoxycinnamic acid and piperlongumic acid
Effect on the stability profile ([2]; addition of ascorbic acid and EDTA, pH 7 phosphate buffer, vs drug alone): did not have a significant effect
Effect on degradation ([2]; addition of ascorbic acid, pH 3): did not readily affect the degradation
Effect on degradation ([2]; addition of hydrogen peroxide (oxidizing agent)): does significantly increase degradation
Effect on degradation rate ([2]; addition of sodium bisulfite, pH 3 citrate buffer, 56°C, vs drug alone): did not affect the degradation rate
Time of degradation ([2]; addition of sodium bisulfite, pH 7): within a few minutes
T90 [2, 14]: 0.3 weeks
k values [2, 14]: 0.3369 weeks^-1
T90 [2, 15]: 0.3 weeks
k values [2, 15]: 0.3266 weeks^-1
T90 [2, 16]: 0.3 weeks
k values [2, 16]: 0.3706 weeks^-1
T90 [2, 17]: 0.3 weeks
k values [2, 17]: 0.3107 weeks^-1
T90 [2, 18]: 0.3 weeks
k values [2, 18]: 0.3860 weeks^-1
T90 [2, 19]: 1.9 weeks
k values [2, 19]: 0.0559 weeks^-1
T90 [2, 20]: 2.3 weeks
k values [2, 20]: 0.0459 weeks^-1
T90 [2, 21]: 2.1 weeks
k values [2, 21]: 0.0494 weeks^-1
T90 [2, 22]: 0.0 weeks
k values [2, 22]: 3069.8950 weeks^-1
Water solubility as a function of pH [3]: does not change as a function of pH
